Measurements published in paper PMC4900628, “Critical Evaluation of P2X7 Receptor Antagonists in Selected Seizure Models” (PLoS ONE, 2016).

Assay: Plasma and brain concentration in mice (co-administration with AEDs)
Type: in vivo
Settings: PTZ-T
Experimental: Blood was collected intracardially by heart […] pipettes supplemented with heparin-Na (ratiopharm, Ulm, Germany; 10μl of 5.000 I.U./ml) and separated by centrifuging (1500xg for 10 min) at 6-8°C. The plasma was stored at -20°C in plastic tubes. After blood sample collection, rats were decapitated and brains were quickly dissected. After removing the adherent blood by tissue paper and cutting off the cerebellum, the samples were fresh frozen using liquid nitrogen. Brain tissue was stored at -80°C and delivered to the different laboratories on dry ice. For mice (groups with n = 6), a similar procedure was used for the preparation of plasma and brain samples. In experiments in which AFC was co-administered with carbamazepine or ethosuximide, drug concentrations in plasma and brain were estimated to detect potential pharmacokinetic interactions. Samples from experiments with AFC were analysed at the Lead Discovery Center (Dortmund, Germany). Briefly, AFC, carbamazepine and ethosuximide were extracted from plasma and homogenized brain by protein precipitation using acetonitrile. Resulting filtrates were analysed by liquid chromatography tandem-mass spectrometry (LC-MS/MS) using a Prominence UFLC system (Shimadzu, Duisburg, Germany) coupled to a QTrap 5500 instrument (ABSciex, Darmstadt, Germany). The compounds were separated on a Zorbax Eclipse Plus C18 column (Agilent Technologies, Santa Clara, CA, USA) with an acetonitrile/water gradient containing 0.1% formic acid as solvent. Chromatographic conditions and mass spectrometer parameters were optimized for each analyte. Plasma and brain concentrations of the compounds were calculated by means of a standard curve. Data were analysed using SigmaPlot (vers. 12.0, Systat Software, Erkrath, Germany) and SPSS (IBM SPSS Statistics 20, […], Germany), respectively. Results are expressed as mean ± SEM. […] In the MES-T, the current intensity inducing tonic hindlimb extensions in 50% of the mice (CC50 values with confidence limits for 95% probability) and the statistical significance was calculated using Probit analysis (SPSS). […] In the PTZ-T, the number of animals in the group with clonic seizures and the latency time were analysed using Fisher's exact probability test and the Mann-Whitney rank sum test, respectively. For multiple comparisons of the latency time a one-way ANOVA with the Holm-Sidak post hoc test was used. The influence of AFC on the plasma and brain concentrations of the antiepileptic drugs was statistical compared using the same procedure. In the PTZ-kindling model, the mean seizure stage within a group was calculated in relation to the number of PTZ-injections. Statistical comparison between vehicle- and compound-treated groups in this model was performed with two-way repeated measures ANOVA, followed by the Holm-Sidak post hoc test. The mean number of PTZ-injections needed to produce the first generalized seizure (≥ stage 3 convulsions) in the vehicle- versus compound-treated groups was statistically compared using a Mann-Whitney rank sum test. In fully kindled rats, the calculated mean seizure stage within a group after vehicle- and compound-treatment were compared using a paired t-test. P < 0.05 was the accepted minimum level of significance.

**Q.** Which results are given for `CCC1(C)CC(=O)NC1=O` (stereo not drawn) [Ethosuximide, ethosuximide]?
**A.** blood concentrations of ethosuximide on co-application of AFC: did not significantly modulate; brain concentration of ethosuximide alone (ethosuximide 100 mg/kg i.p., n = 6): 377.3 ± 14.3 µM; brain concentration of ethosuximide with AFC 50 mg/kg i.p. (ethosuximide 100 mg/kg i.p., n = 6, significantly increased): 453.9 ± 18.7 µM
